Assay [1] has as its target Prothrombin (Homo sapiens, UniProt P00734).
Assay [2] is described as follows: Selectivity for thrombin over trypsin.
The target of assay [3] is Coagulation factor X (Homo sapiens, UniProt P00742). The assay is described as follows: Inhibition of factor 10a.
The nature of assay [4]: Selectivity for thrombin over factor 10a.
Assay [5] deals with Integrin alpha-IIb/beta-3 (Homo sapiens, UniProt P05106+P08514). The assay is described as follows: Inhibition of fibrinogen binding to human platelet GPIIb/IIIa receptor.
The test system of assay [6] is Platelet. The assay is described as follows: Inhibition of ADP-induced platelet aggregation in human platelet rich plasma at 50 uM. Type of assay: functional.
The subject of assay [7] is Platelet. The assay is described as follows: Inhibition of ADP-induced platelet aggregation in human platelet rich plasma. Format: functional, cell-free.

pIC50, pKi: −log10 of the molar value. Activity calls are given as the source filed them. The rule behind the calls is not given here.

As a reminder, the pKi is the Ki on a negative log10 scale, so that one unit is a factor of ten. Read a low pKi as a large Ki. Broadly, the pIC50 is −log10 of the IC50, conventionally taken in molar units. A higher pIC50 goes with a low IC50. By inhibition is commonly meant how much of the control response was suppressed. A higher inhibition goes with a strong effect.

Chain of Integrin alpha-IIb/beta-3 (P05106 27-788 limits assumed): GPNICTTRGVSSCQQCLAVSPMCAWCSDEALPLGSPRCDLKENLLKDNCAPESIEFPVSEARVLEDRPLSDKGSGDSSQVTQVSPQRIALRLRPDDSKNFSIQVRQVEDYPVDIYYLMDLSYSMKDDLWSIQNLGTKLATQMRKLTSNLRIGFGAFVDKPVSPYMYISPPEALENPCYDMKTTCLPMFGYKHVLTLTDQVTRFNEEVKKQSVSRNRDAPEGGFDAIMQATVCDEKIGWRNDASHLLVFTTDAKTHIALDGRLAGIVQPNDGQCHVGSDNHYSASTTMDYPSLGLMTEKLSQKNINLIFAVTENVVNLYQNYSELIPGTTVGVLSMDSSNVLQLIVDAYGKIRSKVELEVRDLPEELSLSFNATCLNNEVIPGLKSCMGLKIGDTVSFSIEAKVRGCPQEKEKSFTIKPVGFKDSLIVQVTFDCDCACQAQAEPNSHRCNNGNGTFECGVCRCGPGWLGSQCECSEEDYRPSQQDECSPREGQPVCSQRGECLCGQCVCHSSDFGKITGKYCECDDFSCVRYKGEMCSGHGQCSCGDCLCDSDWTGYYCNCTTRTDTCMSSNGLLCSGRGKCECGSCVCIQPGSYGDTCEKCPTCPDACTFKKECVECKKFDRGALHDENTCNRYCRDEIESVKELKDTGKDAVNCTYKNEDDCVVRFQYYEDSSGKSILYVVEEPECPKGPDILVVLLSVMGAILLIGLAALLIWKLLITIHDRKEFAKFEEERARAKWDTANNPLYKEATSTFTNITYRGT
Chain of Integrin alpha-IIb/beta-3 (P08514 32-887 limits assumed): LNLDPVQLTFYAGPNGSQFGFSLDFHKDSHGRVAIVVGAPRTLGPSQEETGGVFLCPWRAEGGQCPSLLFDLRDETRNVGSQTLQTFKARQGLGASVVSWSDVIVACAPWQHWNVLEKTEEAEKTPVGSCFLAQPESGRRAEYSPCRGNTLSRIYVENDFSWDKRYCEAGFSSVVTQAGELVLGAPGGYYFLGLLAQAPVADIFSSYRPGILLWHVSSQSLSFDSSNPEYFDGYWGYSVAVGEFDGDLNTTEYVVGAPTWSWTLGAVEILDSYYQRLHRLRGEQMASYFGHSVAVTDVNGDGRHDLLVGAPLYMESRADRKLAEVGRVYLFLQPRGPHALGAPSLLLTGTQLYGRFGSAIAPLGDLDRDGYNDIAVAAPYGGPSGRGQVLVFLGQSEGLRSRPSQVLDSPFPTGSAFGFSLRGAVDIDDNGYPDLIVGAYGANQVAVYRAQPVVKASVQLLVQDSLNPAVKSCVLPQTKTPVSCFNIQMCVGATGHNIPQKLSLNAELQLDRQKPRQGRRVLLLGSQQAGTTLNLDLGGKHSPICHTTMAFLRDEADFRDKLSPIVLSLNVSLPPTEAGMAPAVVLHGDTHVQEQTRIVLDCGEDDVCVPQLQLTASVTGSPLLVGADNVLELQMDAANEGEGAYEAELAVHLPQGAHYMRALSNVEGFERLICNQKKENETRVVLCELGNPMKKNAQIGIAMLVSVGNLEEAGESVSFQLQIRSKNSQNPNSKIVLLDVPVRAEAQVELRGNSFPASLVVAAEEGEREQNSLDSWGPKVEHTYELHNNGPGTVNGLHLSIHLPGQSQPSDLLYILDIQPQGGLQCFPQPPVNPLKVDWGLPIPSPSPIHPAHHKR
Chain of Integrin alpha-IIb/beta-3 (P08514 891-1039 limits assumed): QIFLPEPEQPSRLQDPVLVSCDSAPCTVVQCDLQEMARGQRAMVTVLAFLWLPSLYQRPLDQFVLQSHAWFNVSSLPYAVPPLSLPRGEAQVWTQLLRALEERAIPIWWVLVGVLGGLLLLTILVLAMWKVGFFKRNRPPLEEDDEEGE
Chain of Coagulation factor X (P00742 41-179 limits assumed): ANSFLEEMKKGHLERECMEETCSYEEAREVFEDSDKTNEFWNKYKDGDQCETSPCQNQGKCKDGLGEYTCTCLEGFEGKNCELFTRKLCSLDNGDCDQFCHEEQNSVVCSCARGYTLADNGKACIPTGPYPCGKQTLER
Chain of Coagulation factor X (P00742 235-488 limits assumed): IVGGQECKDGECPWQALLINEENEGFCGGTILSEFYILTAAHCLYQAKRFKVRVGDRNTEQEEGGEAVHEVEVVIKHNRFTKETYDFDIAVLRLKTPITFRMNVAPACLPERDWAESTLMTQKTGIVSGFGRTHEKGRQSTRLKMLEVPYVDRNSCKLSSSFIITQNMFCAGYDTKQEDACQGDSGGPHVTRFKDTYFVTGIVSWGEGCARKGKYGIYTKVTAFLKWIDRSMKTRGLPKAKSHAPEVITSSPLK

In the case of `CCOC(=O)C(Cc1ccccc1)C(=O)Nc1ccc2c(c1)N(C)CC(C)(COc1ccc(C(=N)N)cc1)O2` (stereo unspecified), the pKi in assay [1] was 5.31; in assay [3], 4.53. Also, the Selectivity ratio in assay [2] is 0.6; in assay [4] it was 6. The pIC50 in assay [5] was 4.44. At 50 µM the inhibition in assay [6] was 8%.

In turn, `CCOC(=O)CN(Cc1ccccc1)c1ccc2c(c1)N(C)CC(C)(COc1ccc(C(=N)N)cc1)O2` (stereo unspecified) had a pKi in assay [3] of 4.92. This compound also gave a negative logarithm of the IC50 (pIC50) in assay [5] of 6.14. The inhibition at 50 µM in assay [6] was 13%.

Turning to `CCOC(=O)CCC(=O)N(Cc1ccccn1)c1ccc2c(c1)OC(C)(COc1ccc(C(=N)N)cc1)CN2C` (stereo unspecified), the pKi in assay [1] is 7.60; in assay [3] it was 4.93. Besides, the Selectivity ratio in assay [2] was determined as 56; in assay [4] it was 472. In assay [5], this compound had a pIC50 of 4.95. In addition, at 50 µM the inhibition in assay [6] was 15%.

In assay [3], `CCOC(=O)C(=O)N(Cc1ccccc1)c1ccc2c(c1)N(C)CC(C)(COc1ccc(C(=N)N)cc1)O2` (stereo unspecified) showed a pKi of 4.80. The compound further showed a pIC50 in assay [5] of 5.92. Further, in assay [6], the inhibition at 50 µM came out at 24%.

Turning to `CN1C(=O)C(OCc2ccc(C(=N)N)cc2)Oc2cc(C(=O)N[C@@H](CC(=O)O)c3ccccc3)ccc21` (stereo partly specified), the pKi in assay [1] is 4.83; in assay [3], under 3.70. In assay [5], this compound showed a negative logarithm of the IC50 (pIC50) of 5.79.

With `CCOC(=O)CCC(=O)N(Cc1ccccc1)c1ccc2c(c1)N(C)CC(C)(COc1ccc(C(=N)N)cc1)O2` (stereo unspecified), the pKi in assay [3] was 4.56. Further, the pIC50 in assay [5] was under 4.00. The outcome in assay [6] was inactive.

Regarding `CCOC(=O)C(C(=O)Nc1ccc2c(c1)OC(OCc1ccc(C(=N)N)cc1)C(=O)N2C)c1ccccc1` (stereo unspecified), the results for the pKi in assay [1] and in assay [3] were 5.00 and 4.30, respectively. The Selectivity ratio in assay [2] came to 1.5; in assay [4] it was 5.1. The compound also showed a negative logarithm of the IC50 (pIC50) in assay [5] of 5.61. Moreover, the inhibition at 50 µM in assay [6] was 23%.

Turning to `CN1C(=O)C(OCc2ccc(C(=N)N)cc2)Oc2cc(C(=O)NCCC(=O)O)ccc21` (stereo unspecified), the pKi in assay [1] is 3.93; in assay [3], 3.95. Also, the figures for the Selectivity ratio in assay [2] and in assay [4] were 0.2 and 1, respectively. This compound had a negative logarithm of the IC50 (pIC50) in assay [5] of 4.82. The compound also showed an inhibition at 50 µM in assay [6] of 23%.

For `CN1C(=O)C(OCc2ccc(C(=N)N)cc2)Oc2cc(C(=O)Nc3ccccc3)ccc21` (stereo unspecified), the negative-log Ki (pKi) was 4.62 in assay [1] and 4.50 in assay [3]. Besides, the Selectivity ratio is 0.7 in assay [2] and 1.3 in assay [4]. In assay [5], this compound showed a negative logarithm of the IC50 (pIC50) of 4.92. This compound showed an inhibition at 50 µM in assay [6] of 19%.

In the case of `CN1CC(C)(COc2ccc(C(=N)N)cc2)Oc2cc(NC(=O)c3ccccc3)ccc21` (stereo unspecified), the pKi in assay [1] was 5.30; in assay [3], 4.92. In addition, the results for the Selectivity ratio in assay [2] and in assay [4] were 0.3 and 2.4, respectively. In assay [5], the pIC50 was 5.55. In assay [6], this compound yielded an inhibition at 50 µM of 21%.

For the compound `CCOC(=O)CN(Cc1ccccc1)c1ccc2c(c1)OC(C)(COc1ccc(C(=N)N)cc1)CN2C` (stereo unspecified), the pKi is 6.42 in assay [1] and 5.57 in assay [3]. For the same compound, the Selectivity ratio is 4.5 in assay [2] and 7 in assay [4]. In addition, the pIC50 in assay [5] is 5.84. The same compound had an inhibition at 50 µM in assay [6] of 19%.

With `CN1CC(C)(COc2ccc(C(=N)N)cc2)Oc2cc(N(Cc3ccccc3)C(=O)CCC(=O)O)ccc21` (stereo unspecified), the pKi in assay [3] is 4.53. The compound also showed a pIC50 in assay [5] of under 4.00. In addition, in assay [6], the inhibition at 50 µM stood at 14%.

As to `CCOC(=O)CN(C(=O)c1ccccc1)c1ccc2c(c1)OC(C)(COc1ccc(C(=N)N)cc1)CN2C` (stereo unspecified), the negative-log Ki (pKi) in assay [1] is 6.81; in assay [3], 5.02. Also, the values for the Selectivity ratio in assay [2] and in assay [4] were 12 and 47, respectively. The compound also gave a pIC50 in assay [5] of 5.75. The inhibition at 50 µM in assay [6] came out at 21%.

In the case of `CCOC(=O)CCC(=O)Nc1ccc2c(c1)OC(C)(COc1ccc(C(=N)N)cc1)CN2C` (stereo unspecified), the pKi in assay [1] was 4.77; in assay [3] it was 4.13. Besides, the Selectivity ratio in assay [2] amounted to 0.4; in assay [4] it was 4.4. In assay [5], the pIC50 is 4.85. Moreover, at 50 µM the inhibition in assay [6] was 15%.

Turning to `CCOC(=O)C(=O)N(Cc1ccccc1)c1ccc2c(c1)OC(C)(COc1ccc(C(=N)N)cc1)CN2C` (stereo unspecified), the negative logarithm of the Ki (pKi) in assay [3] is 3.95. Further, the pIC50 in assay [5] was 5.70. Further, in assay [6], 50 µM produced 21% inhibition.

Turning to `CCOC(=O)CCC(=O)N(Cc1ccccc1)c1ccc2c(c1)OC(C)(COc1ccc(C(=N)N)cc1)CN2C` (stereo unspecified), the pKi in assay [1] is 7.22; in assay [3] it was 4.74. Moreover, the values for the Selectivity ratio in assay [2] and in assay [4] were 19 and 300, respectively. In addition, in assay [5], the pIC50 was 4.53. The outcome in assay [6] was inactive.

As for `CN1CC(C)(COc2ccc(C(=N)N)cc2)Oc2cc(NC(=O)C(Cc3ccccc3)C(=O)O)ccc21` (stereo unspecified), the negative-log Ki (pKi) in assay [1] was 5.26. Besides, the pIC50 in assay [7] is 4.60.

`CN1CC(C)(COc2ccc(C(=N)N)cc2)Oc2ccc(N(Cc3ccccc3)C(=O)C(=O)O)cc21` (stereo unspecified) showed a pKi in assay [3] of 4.50. The compound also gave a pIC50 in assay [5] of under 4.00.

Turning to `CCOC(=O)CN(C(=O)c1ccc2c(c1)OC(OCc1ccc(C(=N)N)cc1)C(=O)N2C)c1ccccc1` (stereo unspecified), the results for the pKi in assay [1] and in assay [3] were 5.40 and 4.37, respectively. The values for the Selectivity ratio in assay [2] and in assay [4] were 4.6 and 11, respectively. In assay [5], the pIC50 is 4.55. This compound showed an inhibition at 50 µM in assay [6] of 10%.

Consider `CN1C(=O)C(OCc2ccc(C(=N)N)cc2)Oc2cc(C(=O)N(CC(=O)O)c3ccccc3)ccc21` (stereo unspecified), for which the pKi was 5.75 in assay [1] and 4.30 in assay [3]. Further, the Selectivity ratio in assay [2] was 9.4; in assay [4] it was 28. The pIC50 in assay [5] is under 4.00. The compound also registered an inhibition at 50 µM in assay [6] of 24%.

For `CN1CC(C)(COc2ccc(C(=N)N)cc2)Oc2cc(NC(=O)CCC(=O)O)ccc21` (stereo unspecified), the pKi is 5.29 in assay [1] and 4.47 in assay [3]. Further, the Selectivity ratio in assay [2] was found to be 0.3; in assay [4], 6.6. The negative logarithm of the IC50 (pIC50) was 5.77 in assay [5] and 4.44 in assay [7].

For the compound `CCOC(=O)C[C@H](NC(=O)c1ccc2c(c1)OC(OCc1ccc(C(=N)N)cc1)C(=O)N2C)c1ccccc1` (stereo partly specified), in assay [3], the pKi was 4.26. The pIC50 in assay [5] is 4.61.

`CN1CC(C)(COc2ccc(C(=N)N)cc2)Oc2cc(N(Cc3ccccc3)C(=O)C(=O)O)ccc21` (stereo unspecified) gave a pKi in assay [3] of 4.78. In addition, in assay [5], the negative logarithm of the IC50 (pIC50) was under 4.00. The compound further showed an inhibition at 50 µM in assay [6] of 26%.

With `COC(=O)C(Cc1ccccc1)C(=O)Nc1ccc2c(c1)OC(C)(COc1ccc(C(=N)N)cc1)CN2C` (stereo unspecified), the figures for the pKi in assay [1] and in assay [3] were 5.54 and 4.45, respectively. The values for the Selectivity ratio in assay [2] and in assay [4] were 1.7 and 12, respectively. Further, in assay [5], the pIC50 was 5.04. The compound further yielded an inhibition at 50 µM in assay [6] of 21%.
